Results on 16 molecules are retold here after PubChem BioAssay (NCI).

Common to all, as to assay: inhibition of tumour cell growth, NCI panel, 48 h
For experiment [1], the system named is BT-549 breast.
For experiment [2], the system named is HCT-116 colon.
Experiment [3] has as its system K-562 leukemia.
In experiment [4] the test system is LOX IMVI melanoma.
Experiment [5] relates to MALME-3M melanoma.
For experiment [6], the system named is MCF7 breast.
The subject of experiment [7] is NCI-H460 lung.
Experiment [8] concerns PC-3 prostate.
In experiment [9] the test system is SF-539 CNS.
Experiment [10] relates to SK-MEL-2 melanoma.
In experiment [11] the test system is SK-MEL-5 melanoma.
Experiment [12] concerns SK-OV-3 ovarian.
The subject of experiment [13] is SN12C renal.
The subject of experiment [14] is SNB-75 CNS.
Experiment [15] concerns CAKI-1 renal.
Experiment [16] deals with EKVX NSCLC.
The subject of experiment [17] is HCC-2998 colon.
Experiment [18] concerns MDA-MB-435.
Experiment [19] has as its system A498 renal.
The test system of experiment [20] is OVCAR-3 ovarian.

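Compound exposure: 48 hours, 5 concentrations, 96-well plates. TGI: concentration producing complete growth inhibition.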 Where a SMILES comes first, the peptide text is derived from it. [ ]: non-standard residue; d: D form. The star is where a group is joined. Boc = CC(C)(C)OC(=O)*; Lac = C[CH](O)C(=O)O; OBn = c1ccc(CO*)cc1

Take `Cc1ccc(S(=O)(=O)NC(=O)NC(CC(N)=O)C(=O)O)cc1` (stereo not drawn): the TGI in [1], in [2], in [3], in experiment [4], in experiment [5] and in [6] was over 100 µM throughout. The TGI in experiment [7], in experiment [8], in [9], in [10], in experiment [11] and in experiment [12] was over 100 µM throughout. The TGI in experiment [13] and in experiment [14] was over 100 µM each time.

For `O=C1OCN(c2ccccc2)C12CCN(Cc1ccccc1)CC2`, the TGI is over 100 µM in experiment [1]; over 100 µM in [15]; over 100 µM in experiment [16]; 32.6 µM in [17]; over 100 µM in experiment [2]; 24.1 µM in [3]. Moreover, the TGI in [4] is 30.4 µM; in experiment [5] it was 43.8 µM; in experiment [6], over 100 µM; in [18], 31.2 µM; in experiment [7], 54.5 µM; in [8], over 100 µM. Besides, the TGI in experiment [9] is 39.7 µM; in experiment [10] it was 48.4 µM; in experiment [11], 33.6 µM; in experiment [12] it was over 100 µM; in experiment [13] it was over 100 µM; in experiment [14] it was 59.9 µM.

Take `O=C(Nc1ccccc1)OCCN=C1c2ccccc2C(Br)C(Br)c2ccccc21` (stereo not drawn): the TGI in [19] is 18.1 µM; in experiment [15], 16.2 µM; in experiment [16], 19.8 µM; in experiment [17], 20.8 µM; in experiment [2], 13.3 µM; in experiment [3] it was 7.03 µM. In addition, the TGI in experiment [4] was 13.4 µM; in [5], 16.3 µM; in experiment [6] it was over 31.6 µM; in experiment [18] it was 17.1 µM; in experiment [7], 19.5 µM; in [20] it was 15.8 µM. Besides, the TGI in [8] was over 31.6 µM; in experiment [9], 7.2 µM; in experiment [10], over 31.6 µM; in [11], 16.9 µM; in experiment [12], 22.5 µM; in [13], 17.5 µM. This molecule gave a TGI in experiment [14] of 26.5 µM.

Take `Cc1nnc2n1N=C(c1ccccc1)/C(=C/c1ccc(-c3ccc(Cl)cc3)o1)S2`: the TGI in experiment [19] is 31.4 µM; in experiment [1], 32.2 µM; in experiment [15], 29.4 µM; in experiment [16], 53.3 µM; in experiment [17], 19.9 µM; in experiment [2] it was 25.9 µM. In addition, the TGI is 47.4 µM in experiment [3]; 33.6 µM in [5]; over 100 µM in experiment [6]; 22.3 µM in [18]; 34.2 µM in experiment [7]; 23.9 µM in [20]. Also, the TGI in experiment [8] is 26 µM; in experiment [10] it was 27.5 µM; in experiment [11], 27.2 µM; in experiment [12], over 100 µM; in experiment [13], 35.7 µM.

As to `COc1ccc(/C=c2/sc3n(c2=O)C(c2ccccc2)C2(O)CCCCC2N=3)cc1` (stereo not drawn), the TGI in experiment [1], in experiment [15], in [17], in [2], in experiment [3] and in experiment [4] was over 12.5 µM in each case. The TGI in experiment [5], in [6], in experiment [18], in experiment [7], in experiment [20] and in experiment [8] was over 12.5 µM in each case. Further, the TGI in experiment [10], in [11] and in experiment [14] was over 12.5 µM throughout.

With `O=c1cc(-c2cccc(O)c2)[nH]c2cc3c(cc12)OCO3`, the TGI in experiment [19], in experiment [1], in experiment [17], in [2], in experiment [3] and in experiment [4] was over 100 µM each time. For the same molecule, the TGI is over 100 µM in [5]; over 100 µM in experiment [6]; 0.997 µM in [18]; over 100 µM in experiment [7]; 0.386 µM in experiment [20]; over 100 µM in experiment [8]. Besides, the TGI was 4.39 µM in experiment [9]; 5.01 µM in experiment [11]; 8.27 µM in experiment [12]; over 78 µM in experiment [13]; 20.5 µM in experiment [14].

Consider `O=C(O)CCC(NC(=O)c1ccc(OCc2nc3cc(C(F)(F)F)ccc3nc2-c2ccccc2)cc1)C(=O)O` (stereo not drawn), for which the TGI in experiment [19], in [15], in [16], in experiment [17], in experiment [2] and in experiment [3] was over 100 µM throughout. In addition, the TGI in [4], in [5], in experiment [6], in experiment [18], in [7] and in [20] was over 100 µM in each case. The TGI in [8], in experiment [9], in [10], in experiment [12], in experiment [13] and in experiment [14] was over 100 µM each time.

In the case of `C/C=C/C(C#N)(/C=C/c1ccccc1)OP1(=O)OC(c2ccccc2)C(C)N1C` (stereo not drawn), the TGI amounted to 35.6 µM in experiment [19]; 54.8 µM in experiment [15]; 44.5 µM in experiment [16]; 27.5 µM in experiment [17]; 31.3 µM in experiment [2]; 39.3 µM in [3]. The TGI came to 35 µM in experiment [4]; 38.8 µM in experiment [5]; 49.4 µM in experiment [6]; 34.9 µM in experiment [18]; 33.8 µM in experiment [7]; 35.5 µM in [20]. Moreover, the TGI in experiment [8] was determined as 33.3 µM; in experiment [9] it was 35.1 µM; in experiment [10] it was 35.9 µM; in experiment [11] it was 32.1 µM; in experiment [12] it was 55.3 µM; in [13], 35.5 µM. Moreover, the TGI in experiment [14] worked out at 39.4 µM.

Take `S=C(N1CCN(c2ccc(Cl)c(Cl)c2)CC1)N1CCN(c2ccc(Cl)c(Cl)c2)CC1`: the TGI in experiment [1] was 30.4 µM; in [15], 20.4 µM; in experiment [16] it was 15.2 µM; in experiment [17], 26.6 µM; in [2] it was 19.4 µM; in [3] it was 26.7 µM. Further, the TGI in [5] was 28.1 µM; in experiment [6] it was 24 µM; in experiment [18], 29 µM; in experiment [20] it was 26.3 µM; in experiment [8], 28.2 µM; in [10], 41.7 µM. Also, the TGI worked out at 28.4 µM in experiment [11] and 25.1 µM in experiment [12].

In the case of `CC1=NN(c2nc(N)nc(/C(C#N)=C/c3ccccc3O)n2)C(C)(C)C1`, the TGI in experiment [19] turned out to be 62.9 µM; in experiment [1] it was 67.7 µM; in experiment [15], 36.9 µM; in experiment [16] it was 37.5 µM; in experiment [17] it was 36.5 µM; in [2], 32.2 µM. Also, the TGI is over 100 µM in experiment [3]; 33.8 µM in [5]; 64.9 µM in [6]; 32.9 µM in [18]; 40.9 µM in experiment [7]; 27.8 µM in [20]. In addition, the TGI is 31.6 µM in experiment [8]; 30.6 µM in [9]; 39.6 µM in [10]; 28.8 µM in experiment [11]; 53.2 µM in [12]; 71.9 µM in [13].

As for `c1ccc(C(C2=Nc3cccc4cccc(c34)N2)c2ccccc2)cc1`, the TGI in experiment [1] was 61.4 µM; in experiment [15], over 100 µM; in experiment [16], 80.7 µM; in [17] it was 37.8 µM; in [3] it was 81.7 µM; in experiment [4] it was 37.3 µM. Moreover, the TGI in [5] is 73.3 µM; in experiment [6] it was over 100 µM; in experiment [18], 66.1 µM; in [7], 54.3 µM; in [20], 41.5 µM; in experiment [8] it was 87.3 µM. Besides, the TGI was 34.2 µM in [9]; 50 µM in [10]; 38.2 µM in experiment [11]; 51.8 µM in experiment [12]; 30.2 µM in experiment [13]; 72.4 µM in experiment [14].

On to `CC(OC(=O)C(Cc1ccccc1)NC(=O)C(Cc1ccccc1)NC(=O)OC(C)(C)C)C(=O)OCc1ccccc1` (stereo not drawn) (Boc-Phe-Phe-[Lac]-OBn; configuration not given here), for which the TGI in experiment [1], in experiment [15], in experiment [17], in [2], in experiment [3] and in experiment [5] was over 100 µM in each case. For the same molecule, the TGI was 54.6 µM in experiment [6]; over 100 µM in experiment [18]; over 100 µM in [7]; over 100 µM in [20]; over 100 µM in [8]; over 100 µM in experiment [10]. The TGI in [11], in [12], in [13] and in [14] was over 100 µM throughout.

For `CN(C)c1ccc(C2CC(c3ccc4ccccc4c3O)=NN2)cc1` (stereo not drawn), the TGI in experiment [19] was 66.8 µM; in experiment [1] it was over 100 µM; in experiment [15], over 100 µM; in experiment [17], over 100 µM; in experiment [2], over 100 µM; in experiment [3], 90.2 µM. For the same molecule, the TGI in experiment [5], in experiment [6], in [18], in experiment [7], in experiment [20] and in experiment [8] was over 100 µM in each case. Besides, the TGI was 70.5 µM in experiment [9]; over 100 µM in experiment [10]; over 100 µM in [11]; over 100 µM in experiment [12]; over 100 µM in experiment [13]; over 100 µM in experiment [14].

Regarding `CCCN(CCC)CCc1ccc(OC2=CCN(C)CC2)cc1`, the TGI in experiment [1], in experiment [15], in experiment [16], in [17], in [2] and in experiment [3] was over 100 µM each time. Also, the TGI in experiment [4] was 89.8 µM; in experiment [5], 32.4 µM; in experiment [6] it was over 100 µM; in experiment [18], over 100 µM; in experiment [20], over 100 µM; in experiment [8], over 100 µM. For the same molecule, the TGI in experiment [10], in experiment [11], in experiment [12] and in experiment [13] was over 100 µM in each case.

Regarding `C1=CC2(C=CC13O[C@H](C1CCCCC1)[C@@H](C1CCCCC1)O3)O[C@H](C1CCCCC1)[C@@H](C1CCCCC1)O2`, the TGI in [19], in [1], in [15], in [2], in experiment [3] and in [4] was over 50 µM each time. Also, the TGI in experiment [5], in experiment [6], in experiment [18], in experiment [7], in experiment [20] and in [8] was over 50 µM throughout. The TGI in [9], in [10], in experiment [11], in experiment [12], in [13] and in [14] was over 50 µM in each case.

As for `O=C(NC(=S)Nc1ccc(Br)cc1)c1ccc2c(c1)Sc1ccccc1S2`, the TGI in experiment [19] is 36.8 µM; in experiment [1], 60.6 µM; in experiment [15] it was 38.2 µM; in [2], 51 µM; in experiment [3], 24.5 µM; in [4], 61.4 µM. Also, the TGI in experiment [5] was 48.5 µM; in experiment [6], over 100 µM; in experiment [18] it was over 100 µM; in experiment [7], 32.3 µM; in experiment [20], 41.2 µM; in [8] it was over 100 µM. Also, the TGI was 53.5 µM in experiment [9]; 57.9 µM in experiment [10]; over 100 µM in experiment [11]; 33 µM in experiment [12]; 38.4 µM in [13]; 29.2 µM in [14].
